{"source": "patent US12139744B2", "about": "“Stabilisation of biological samples” (QIAGEN GmbH, priority 2013, dated 2024)", "key": {"[1]": {"tested_on": "FOS, IL1B, IL8 and TP53 transcripts", "assay": "Transcript level stabilisation in stored blood, real time RT-PCR", "format": "cell-based, human", "conditions": "blood incubated at RT for 0, 24 and 72 hours; DMPA 5% v/v final in EDTA blood, 5xMOPS pH5.5", "excerpt": "A test system and study setup was established that allows the identification of reagent compositions that have gene transcript stabilisation capabilities, as indicated by constant levels of transcripts from selected genes (c-fos, IL-1beta, IL-8, p53). These transcripts were identified in prior studies as very unstable transcripts during storage, which are induced or down regulated (gains and losses of transcripts) within minutes after blood collection and were therefore chosen as “worst case” markers for screening purposes.\nBlood was collected from multiple donors into replicate EDTA blood tubes (BD, [−] control of sample stabilisation) and PAXgene Blood RNA Tubes (PreAnalytiX) serving as [+] control of sample stabilisation. PAXgene Blood RNA tubes contain a composition (see also background of the invention) that lysis cells and thereby “freeze” the gene transcription profile. PAXgene Blood RNA tubes are for stabilizing blood for gene expression analysis. One aim was to find stabilization method that not based on cell lysis but achieves the same or similar performance as the PAXgene Blood RNA tubes in transcript level stabilization. […]\nTranscript levels of all RNA samples were analysed by real time RT-PCR using monoplex assays of FOS, IL1B, IL8 and TP53, normalized to the amount of template input into the reaction. […]"}, "[2]": {"tested_on": "CD3 on lymphocytes", "assay": "aCD3 FACS analysis of cell and cell surface epitope integrity", "format": "cell-based, human", "conditions": "EDTA blood, test solution 5% v/v DMPA, RT 0 h, 24 h, 72 h", "description": "FIG. 5: Fluorescence activated cell sorting (aCD3 FACS) analysis of sample aliquots from blood collected from one donor into EDTA tubes. Blood aliquots were subjected to FACS using PE-conjugated anti-CD3 antibody from samples that were not incubated after blood collection (0 h) and samples after one and three days of incubation at RT (24 h, 72 h). The number of fluorescence-labelled cells was counted and the intensity of the fluorescence signal per event was quantified. Intensity (x-axis) and number of fluorescence signals (y-axis) are shown as histograms. Thresholds were defined to differentiate unspecific weak fluorescence signals (−) from stronger specific fluorescence signals caused by specifically bound anti-CD3 antibody to cells (+). […]\nCell and cell surface epitope integrity was analysed by fluorescence activated cell sorting (FACS) using fluorescence conjugated anti-CD3 antibody\nIn addition, cell and cell surface epitope integrity was analysed in the stabilized samples by fluorescence activated cell sorting (FACS). In detail, the presence and accessibility of cell surface proteins was analysed by binding of fluorescence conjugated antibody (PE-labelled anti-CD3) directed against cellular epitope CD3 that is specific for lymphocytes, while other white blood cell subtypes (monocytes, neutrophilic granulocytes) are CD3 negative."}, "[3]": {"tested_on": "18S ribosomal DNA", "assay": "18S rDNA increase in plasma of stored blood (qPCR, 66 bp and 500 bp amplicons)", "format": "cell-based, human", "conditions": "for Released DNA (18S rDNA) after storage: 3 and 6 days RT, vs unstabilized EDTA blood", "description": "Blood obtained from donors was collected into 10 ml K2 EDTA tubes (BD). 4.5 ml of the respectively collected blood was mixed with 0.9 ml of different stabilization solutions (see below examples on the details of the tested stabilization solutions).\nAll stabilized blood samples were set up in triplicates per condition and test time point. At time point 0 (reference), immediately after mixing the stabilization solution and blood, plasma was generated and the circulating extracellular DNA was extracted. The residual stabilized blood sample was stored for three days and six days at room temperature.\nPlasma was generated from the stabilized and unstabilized (EDTA) blood samples by inverting the blood containing tubes for four times. Then, the tubes were centrifuged for 10 minutes at 1900×g at 4° C. 2.5 ml of the plasma fraction was transferred into a fresh 15 ml falcon tube and centrifuged for 10 minutes at 16.000×g at 4° C. 2 ml of the respectively cleared plasma was used for extracellular nucleic acid isolation using the QIAamp circulating nucleic acid kit (QIAGEN) according to the manufacturer's instructions.\nThe isolated extracellular DNA was analyzed using two different qPCR assays, targeting different fragment lengths of the 18S ribosomal DNA:\nCycle threshholds of the individual samples were translated into amount of gDNA in the eluate, according to a gDNA standard curve. The gDNA amount of the storage time points was compared to the time zero gDNA level from the same donor and is shown as fold increase in the figures. Especially the increase of the 500 bp fragment in the plasma fraction of the blood sample after storage is an indication for a lysis/destruction of white blood cells. Thus, the lower the amount of released 500 bp DNA, the better the performance of the stabilization method."}, "[4]": {"tested_on": "blood samples", "assay": "Inspection of plasma for hemolysis", "format": "cell-based, human", "conditions": "Example 4: 2.5% and 5% DMPA with caspase inhibitor", "excerpt": "The focus of the analysis was the stabilization of the extracellular nucleic acid population as determined by analyzing the increase of 18S rDNA. Shown is the increase of DNA relative to time point 0 with 2.5%, 5% and 7.5% N,N dimethylpropanamide (DMPA) or 5% DMAA with caspase inhibitor (fold change) using different amplicon lengths of 18SrRNA gene. Bars indicate the mean of the triplicate samples per condition and test time point. […] Thus, a stabilization of the extracellular nucleic acid population was achieved. Furthermore, the obtained plasma was inspected in order to analyse whether hemolysis occurred."}, "[5]": {"tested_on": "PKC", "conditions": "cited from earlier work"}, "[6]": {"molecular_target": "T1, calpain II (Homo sapiens, UniProt P17655)", "T1 sequence (P17655 1-700)": "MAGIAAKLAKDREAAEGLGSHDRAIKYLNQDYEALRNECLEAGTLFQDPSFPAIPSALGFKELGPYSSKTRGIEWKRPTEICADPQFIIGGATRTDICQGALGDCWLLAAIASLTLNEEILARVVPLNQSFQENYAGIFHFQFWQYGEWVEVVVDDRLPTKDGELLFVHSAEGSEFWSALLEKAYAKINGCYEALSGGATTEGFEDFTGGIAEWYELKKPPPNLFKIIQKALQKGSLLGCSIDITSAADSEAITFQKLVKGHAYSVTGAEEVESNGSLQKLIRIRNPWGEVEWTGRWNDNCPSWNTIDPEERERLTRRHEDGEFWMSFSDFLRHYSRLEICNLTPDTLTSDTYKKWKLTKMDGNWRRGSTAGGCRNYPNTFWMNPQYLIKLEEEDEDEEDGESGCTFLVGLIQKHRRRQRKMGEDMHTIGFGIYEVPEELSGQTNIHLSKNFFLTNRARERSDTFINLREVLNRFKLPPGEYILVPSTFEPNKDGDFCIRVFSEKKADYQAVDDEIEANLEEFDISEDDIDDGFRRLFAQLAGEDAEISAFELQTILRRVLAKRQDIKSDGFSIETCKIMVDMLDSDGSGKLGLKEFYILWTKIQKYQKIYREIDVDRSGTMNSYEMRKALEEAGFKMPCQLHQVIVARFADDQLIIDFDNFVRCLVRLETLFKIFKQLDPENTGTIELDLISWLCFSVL", "T1 sequence (P04632 1-268 partner)": "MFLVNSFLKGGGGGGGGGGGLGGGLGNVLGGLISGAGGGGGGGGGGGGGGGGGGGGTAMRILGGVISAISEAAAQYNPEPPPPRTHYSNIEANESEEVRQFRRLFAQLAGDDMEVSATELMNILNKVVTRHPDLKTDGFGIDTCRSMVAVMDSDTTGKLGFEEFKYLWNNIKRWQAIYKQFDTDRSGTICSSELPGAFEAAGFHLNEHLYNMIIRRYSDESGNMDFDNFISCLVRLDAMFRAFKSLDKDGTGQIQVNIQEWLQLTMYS", "conditions": "irreversible inhibitor; cited from earlier work"}, "[7]": {"tested_on": "cells", "conditions": "cited from earlier work"}}, "note": "* marks the point of attachment. Cbz = O=C(OCc1ccccc1)*; CH2F = FC*"}
{"molecule": "CCC(=O)N(C)C", "note": "[DMPA, N,N-dimethylpropanamide]", "values": [{"measurement": "Relative transcript levels of FOS, IL1B, IL8 and TP53 (CT values) over storage", "setting": "[1]", "result": "stabilised expression levels"}, {"measurement": "Detection of lymphocytes by PE-conjugated anti-CD3 FACS", "setting": "[2]", "result": "detectable for up to three days"}, {"measurement": "Increase in 18S rDNA relative to time point 0", "setting": "[3]; Example 2: DMPA […], 2% or 2.5% without caspase inhibitor, 7.2 mg K2 EDTA/ml, RT up to 6 days, vs EDTA blood", "result": "significantly reduced increase in 18S rDNA"}, {"measurement": "Released DNA (18S rDNA) after storage", "setting": "[3]; Example 3: 2.5%, 5% or 7.5% (v/v) with 1 μM Quinoline-Val-Asp-CH2-OPH and K2 EDTA", "result": "significantly lower amounts of released DNA"}, {"measurement": "Released DNA (18S rDNA) after storage", "setting": "[3]; Example 4: 2.5%, 5% or 7.5% DMPA with 1 μM caspase inhibitor, 7.2 mg K2 EDTA/ml", "result": "significantly lower amounts of released DNA"}, {"measurement": "Increase in 18S rDNA relative to time point 0", "setting": "[3]; Example 5: DMPA in different concentrations with 1 μM caspase inhibitor, 7.2 mg K2 EDTA/ml", "result": "significantly reduced increase in 18S rDNA"}, {"measurement": "Hemolysis in plasma obtained from stabilized blood", "setting": "[4]", "result": "did not show signs of hemolysis"}]}
{"molecule": "O=c1c(O)c(-c2ccc(O)c(O)c2)oc2cc(O)cc(O)c12", "note": "[Quercetin]", "values": [{"measurement": "IC50 PKC", "setting": "[5]", "result": "15 μg/ml. It strongly abrogated PI3K and Src kinases, mildly"}]}
{"molecule": "Cbz-Leu-Leu-Tyr-CH2F [Calpain Inhibitor IV]", "values": [{"measurement": "k2 calpain II", "setting": "[6]", "result": "= 28,900 M-1s-1). Also acts as an inhibitor of cathepsin L (k2 ="}]}
{"molecule": "Cbz-Val-Ala-Asp-CH2F", "values": [{"measurement": "Cytotoxicity", "setting": "[7]", "result": "no added cytotoxic effects"}]}
